Where two headings read alike, the source gives them in different places.
Assays:
ACE2 mRNA = assay type: cell-based, African green monkey (Chlorocebus sp)
SARS-CoV-2 (Vic 01) = test: microbe, parasite or virus in culture; assay type: cell-based; settings: for Microscopy at day 3: Vero cells, 1000 TCID50 SARS-CoV-2, cytopathic effect (CPE)
ACE2 protein = ACE2 protein by ELISA in cell lysate of CACO-2 cells; assay type: cell-based, human; settings: 72 hours, 1 μM daily for three days, compared to UP-P, FIG. 3
Experimental: FIG. 3 illustrates the expression of ACE2 protein by ELISA in cell lysate of CACO-2 cells 72 hours following treatment with andrographolide (UP-A) and piceid (UP-P) (1 μM) daily for three days.
For ACE2 protein measurements, Caco-2 cells were scraped from each well in ice-cold RIPA buffer for ELISA assays. To determine the quantity of ACE2 in Caco-2 cells an Angiotensin Converting Enzyme 2 (ACE2) ELISA Kit (CusaBio, Wuhan, Hubei, China, catalogue number: CSB-E17204m) was performed on samples as per the manufacturers protocol. Briefly, each of the samples was loaded with Sample Diluent in duplicate wells. A standard curve was prepared from a Standard solution provided. 0, 6.25, 12.5, 25, 50, 100, 200 and 400 μg/mL of the standard was added to a series of wells in duplicate. The final volume of each standard well was made up to […] with the addition of Sample Diluent. […] of provided Biotin-antibody (1×) was added to each well and then after washing steps, […] of HRP-avidin antibody (1×). The plate was put on shake mode on a CLARIOstarPlus Multi-Mode Microplate Reader (BMG Labtech, Ortenberg, Germany) to ensure proper mixing before being scanned at Ex/Em=570/540 nm in an end point mode.

M^pro = M^pro (Severe acute respiratory syndrome coronavirus 2, UniProt P0DTD1); test: Initial in silico and enzymology studies targeting M^pro

Row | SMILES | ACE2 mRNA expression (ACE2 mRNA; Vero (AGM) cells, 48 h, FIG. 1) | Microscopy at day 3 (SARS-CoV-2 (Vic 01); drug conc. 0.078125 μM) | Microscopy at day 3 (SARS-CoV-2 (Vic 01); drug conc. 0.15625 μM) | Microscopy at day 3 (SARS-CoV-2 (Vic 01); drug conc. 0.3125 μM) | Microscopy at day 3 (SARS-CoV-2 (Vic 01); drug conc. 0.625 μM) | Microscopy at day 3 (SARS-CoV-2 (Vic 01); drug conc. 1.25 μM) | Microscopy at day 3 (SARS-CoV-2 (Vic 01); drug conc. 2.5 μM) | Microscopy at day 3 (SARS-CoV-2 (Vic 01); drug conc. 5 μM) | Microscopy at day 3 (SARS-CoV-2 (Vic 01); drug conc. 10 μM) | Microscopy at day 3 (SARS-CoV-2 (Vic 01); drug conc. 20 μM) | Microscopy at day 3 (SARS-CoV-2 (Vic 01); drug conc. 40 μM) | other results
1 | C=C1CCC2[C@@](C)(CC[C@@H](O)[C@@]2(C)CO)C1C/C=C1/C(=O)OCC1O (stereo partly drawn) [Andrographis, 3-[2-[Decahydro-6-hydroxy-5-(hydroxymethyl)-5,8a-dimethyl-2-methylene-1-napthalenyl]ethylidene]dihydro-4-hydroxy-2(3H)-furanone] | significantly decreased | CPE | CPE | CPE | CPE | CPE | CPE | CPE | CPE | CPE | Toxicity | time of maximal effect on ACE2 mRNA expression (ACE2 mRNA; FIG. 2, decreasing at 48 hours and diminishing at 72 hours): 24 h; concentration below which loss of efficacy is observed (ACE2 mRNA) (ACE2 mRNA; FIG. 2 dose response): below 0.5 μM; concentration achieving the maximal response (ACE2 mRNA) (ACE2 mRNA; FIG. 2 dose response, no substantial increase in activity at higher doses): 1 µM; ACE2 mRNA expression (ACE2 mRNA; Vero (AGM) cells, 24 hours, FIG. 2): decreasing ACE2 mRNA expression; dose with the greatest effect on ACE2 mRNA expression (ACE2 mRNA; Vero (AGM) cells, 48 h, FIG. 1, lowest dose): 1 µM; IC50 (SARS-CoV-2 (Vic 01); Severe acute respiratory syndrome coronavirus 2, Vero, 72 h, read-out: IC50 calculated from virus titration (TCID50 data)): 3.25 µM; antiviral activity against SARS-CoV-2 (SARS-CoV-2 (Vic 01); alone and in combination with piceid and ursolic acid): showed antiviral activity; ACE2 protein levels by ELISA (ACE2 protein): decreased
2 | OCC1O[C@@H](Oc2cc(O)cc(/C=C/c3ccc(O)cc3)c2)C(O)C(O)[C@@H]1O (stereo partly drawn) [Piceid, 2-[3-Hydroxy-5-[(E)-2-(4-hydroxyphenyl)ethenyl]phenoxy]-6-(hydroxymethyl)oxane-3,4,5-triol] | no discernible effect | CPE | CPE | CPE | CPE | CPE | CPE | CPE | CPE | CPE | CPE | candidate targeting M^pro (M^pro): promising candidate
3 | C[C@H]1[C@H](C)CC[C@]2(C(=O)O)CC[C@]3(C)C(=CC[C@@H]4[C@@]5(C)CC[C@H](O)C(C)(C)[C@@H]5CC[C@]43C)[C@H]12 [Ursolic acid, (1S,2R,4aS,6aR,6aS,6bR,8aR,10S,12aR,14bS)-10-Hydroxy-1,2,6a,6b,9,9,12a-heptamethyl-2,3,4,5,6,6a,7,8,8a,10,11,12,13,14b-tetradecahydro-1H-picene-4a-carboxylic acid] | – | CPE | CPE | CPE | CPE | CPE | CPE | CPE | CPE | CPE | Toxicity | ACE2 mRNA expression (ACE2 mRNA): decreased ACE2 mRNA expression to a lesser extent in a dose dependent manner
